Results as given in US8709718B1, “Method of treating lung cancer” (Max-Planck-Gesellschaft zur Forderung der Wissenschaften …, priority 2011, dated 2014).

Columns and labels:
[1] = system: 83 lung cancer cell lines; assay: Cell-line screening, viability by cellular ATP content (CellTiter-Glo); format: cell-based
[2] = system: PDGFRA- and FGFR1-amplified cell line H1703; details: 96 h of compound treatment, increasing concentrations
Description: Viability was determined after 96 hours by measuring cellular ATP content (CellTiter-Glo, Promega). Half-maximal inhibitory concentrations (GI50) were determined using the statistical data analysis software “R” with the package “ic50”.

[3] = system: lung cancer cells carrying amplified FGFR1; assay: Apoptosis by Annexin V/PI flow cytometry; format: cell-based; details: 1.0 μM, 72 hours, versus DMSO; specifically in FGFR1-amplified cells; p=0.008
Description: Finally the cells were analyzed on a FACS Canto FlowCytometer (BD Biosciences).

[4] = system: FGFR1-amplified cell lines; assay: Soft-agar colony formation assay; format: cell-based; details: FGFR1-amplified cells
Description: Cells were suspended in growth media containing 10% FCS and 0.6% agar and plated in triplicate on 50 μl solidified growth medium (10% FCS; 1.0% agar). Growth medium containing indicated compound concentrations was added on top. Colonies were analyzed using the Scanalyzer imaging system (Lemnatec, Germany).

[5] = system: EGFR-mutant cell line HCC827; assay: Immunoblotting of phosphorylated FGFR and downstream molecules; format: cell-based
Source text: (§1) The following antibodies were used for immunoblotting: β-actin (MPBioscience), phospho-FGFR(Y653, Y654), pFRS2 (Tyr196), p-AKT (S473), pS6, S6, AKT, p-ERK, ERK (Cell Signaling Technology), total-FGFR1 (Santa Cruz), anti-rabbit-HRP, anti-mouse-HRP-antibody (Millipore).

[6] = system: FGFR1-amplified cells (H1581, H520); assay: as above; format: cell-based
Source text: as §1

[7] = system: FGFR1 amplified cell line H520; assay: FGFR1 phosphorylation by immunoprecipitation; format: cell-based; details: H520, 1 μM
Description: For the detection of FGFR1 phosphorylation, whole-cell lysates (0.5-1 mg) in NP40 lysis buffer was incubated with agarose A/G Plus preconjugated with the FGFR1 antibody. Immunoprecipitates were washed in NP40 lysis buffer, boiled in sample buffer, and subjected to SDS-PAGE followed by immunoblotting using an anti phospho-tyrosine residues antibody to detect specific phosphorylation of FGFR1.

[8] = system: FGFR1-amplified lung cancer cells expressing FGFR1^V561M; details: 0.5 μM and 1.0 μM
Source text: The V561M mutation was introduced into FGFR1 cloned in pBABE-Puro by site-directed mutagenesis. Replication-incompetent retroviruses were produced by contransfection with the pCL-ampho plasmid in HEK 293T cells. Hairpin shRNA targeting the different genes were ordered from Sigma. Replication-incompetent lentiviruses were produced from pLKO.1-Puro based vectors by contransfection with Δ8.9 and pMGD2 in 293T cells as described previously (Sos et al., Cancer Res 70, 868-874 (2010)). After transduction cells were selected with puromycin (1.5 μg/ml) and five days after selection cells were counted using trypan blue.

H1581 cells = assay: Xenograft mouse model, FGFR1-amplified H1581 cells; format: in vivo; details: 100 mg/kg twice a day, oral gavage, mice engrafted with FGFR1-amplified cells
Description: (§2) All animal procedures were approved by the local animal protection committee and the local authorities. 5*10^6 tumor cells were injected subcutaneously into male nude mice.

[9] = system: H1975 (FGFR1 wild type) cells; assay: Xenograft mouse model, EGFR-mutant H1975 cells; format: in vivo, mice; details: xenografted EGFR-mutant H1975 cells
Description: as §2

[10] = system: phospho-ERK, phospho-AKT in FGFR1-amplified tumors; assay: Immunohistochemical staining of explanted tumors; format: in vivo, mice; details: end of treatment
Source text: Mice bearing FGFR1-amplified tumors were sacrificed at the end of treatment. Tumors were exgrafted and embedded in paraffin. […] Antibodies recognizing pAKT, pERK, AKT and ERK were obtained from Cell signaling.

[11] = Pharmacokinetics of PD173074 in mice; format: in vivo
Description: Pharmacokinetic data were created by taking blood-samples from male nude mice by puncture of the tail-vein under isoflurane anesthesia. […] All blood samples were centrifuged; the blood plasma-containing supernatant was extracted and stored at -20° C. Analytic samples were prepared from the blood plasma by acetonitrile extraction with an internal standard of 1 μM griseofulvin. […] Pharmacokinetic data was evaluated with WinNonlin Software (Pharsight).

FGFR1 = FGFR1 (Homo sapiens, UniProt P11362); details: FGFR1 one of only two of 105 kinases
Sequence of FGFR1 (P11362 22-822): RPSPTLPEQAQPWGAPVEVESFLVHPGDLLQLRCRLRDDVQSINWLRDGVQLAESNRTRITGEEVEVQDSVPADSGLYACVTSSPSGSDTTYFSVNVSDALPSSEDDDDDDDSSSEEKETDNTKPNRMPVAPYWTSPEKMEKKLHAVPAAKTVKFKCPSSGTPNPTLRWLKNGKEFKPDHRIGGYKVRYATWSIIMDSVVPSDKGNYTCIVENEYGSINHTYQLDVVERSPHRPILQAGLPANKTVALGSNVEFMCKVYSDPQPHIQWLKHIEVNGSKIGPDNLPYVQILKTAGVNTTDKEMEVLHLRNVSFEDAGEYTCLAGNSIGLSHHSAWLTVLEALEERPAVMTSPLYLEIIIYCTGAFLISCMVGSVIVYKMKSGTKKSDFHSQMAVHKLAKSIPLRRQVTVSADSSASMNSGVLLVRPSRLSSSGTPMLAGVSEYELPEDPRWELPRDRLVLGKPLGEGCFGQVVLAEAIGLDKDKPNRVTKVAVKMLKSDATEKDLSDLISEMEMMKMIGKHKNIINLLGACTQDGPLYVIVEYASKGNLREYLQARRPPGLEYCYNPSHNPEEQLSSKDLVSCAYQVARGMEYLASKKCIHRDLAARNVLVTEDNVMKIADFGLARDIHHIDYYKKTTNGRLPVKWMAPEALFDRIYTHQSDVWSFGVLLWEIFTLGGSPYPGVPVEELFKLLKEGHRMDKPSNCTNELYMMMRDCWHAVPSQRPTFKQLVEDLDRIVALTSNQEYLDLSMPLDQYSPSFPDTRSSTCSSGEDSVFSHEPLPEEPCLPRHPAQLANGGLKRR

CCN(CC)CCCCNc1ncc2cc(-c3cc(OC)cc(OC)c3)c(NC(=O)NC(C)(C)C)nc2n1 [PD173074]
sensitivity of FGFR1-amplified cell line H520 ([1]; H520, derived from a squamous-cell lung cancer patient): sensitive | GI50 ([1]; four of the 83 lung cancer cell lines tested, viability after 96 hours, read-out: half-maximal growth inhibitory concentration (GI50)): < 1000 nM | growth inhibition ([1]; specifically in lung cancer cells carrying amplified FGFR1, p=0.0002): inhibited growth | activity on viability of H1703 cells [2]: not active | induction of apoptosis [3]: induced apoptosis | colony formation in soft agar [4]: decreased colony formation | levels of phosphorylated FGFR1 and FRS2 [5]: not in the EGFR-mutant cell line HCC827 | levels of phosphorylated FGFR1 [6]: reduced the levels of phosphorylated FGFR1 | phosphorylation of ERK [6]: inhibition of phosphorylation of ERK | phosphorylation of FGFR1 (phosphotyrosine after immunoprecipitation) [7]: leads to dephosphorylation of FGFR1 | cytotoxicity and dephosphorylation of FGFR on expression of FGFR1^V561M [8]: abolished | tumor size (H1581 cells): tumor shrinkage | tumor regression [9]: did not show signs of regression | levels of phospho-AKT in explanted tumors [10]: not of phospho-AKT | levels of phospho-ERK in explanted tumors [10]: reduction in the levels of phospho-ERK | exposure ([11]; 50 mg/kg twice a day compared to 100 mg/kg twice a day): only a minimal exposure | half-life in vivo ([11]; mice): short half-life | kinase inhibition (FGFR1): strongly inhibited
